From US6673625B2, “Saccharide sensing molecules having enhanced fluorescent properties” (The Regents of the University of California, priority 1999, dated 2004)

How the values were obtained:
[1] = Rehm-Weller estimate of free energy of photoinduced electron transfer (PET); format: physicochemical
From the text: The search for new fluorescent glucose transducers based on photoelectron transfer (PET) requires, among other things, an understanding of the electrochemistry of any potential donor-acceptor pair. The free energy of PET (ΔGel) can be calculated using the Rehm-Weller equation shown below:
ΔGel(kcal mol^−1)=23.06[E^0(D^+/D)−E^0(A/A^−)]−wp−wr−ΔG00 where E^0(D^+/D) is the oxidation potential of the donor, E^0(A/A^−) is the reduction potential of the acceptor, and ΔG00 is the free energy corresponding to the equilibrium energy E00 (see e.g. Kavarnos, G. J. In Fundamentals of photoinduced electron transfer, VCH Publishers: New York, N.Y., 1993; p Chapter 1 and Rehm and Weller, Ist. J. Chem. 1970, 8, 259). The quantities wp and wr are Coulombic terms for the products and reactants, and ate found to be small in polar solvents. To simplify predictions, we assume wp and wr to be zero, and estimate E00 as the energy corresponding to [λmax(ex)+λmax(em)]/2 for each fluorophore.
ΔGPET=23.06[E^0(Z^oxidation)−E^0(F^reduction)]−ΔE00],
The electrochemical potentials can be measured using the individual molecular groups before assembling the complete molecule.
Electrochemistry. The search for new fluorescent glucose transducers based on PET requires, among other things, an understanding of the electrochemistry of any potential donor-acceptor pair. The free energy of PET (ΔGel) can be calculated using the Rehm-Weller equation shown in eq 1, where E^0(D^+/D) is the oxidation potential of the […]
ΔGe(kcal mol^−1)=23.06[E^0(D^+/D)−E^0(A/A^−)]−wp−wr−ΔG00 (1) donor, E^0(A/A^−) is the reduction potential of the acceptor, and ΔG00 is the free energy corresponding to the equilibrium energy E00. The quantities wp and wr are Coulombic terms for the products and reactants, and are found to be small in polar solvents. In our case, wr=0 since the reactants are neutral. To simplify predictions, we assume wp to be zero and estimate E00 as the energy corresponding to [λmax(ex)+λmax(em)]/2 for each fluorophore. […]
it is possible to estimate the free energy of photoinduced electron transfer (PET) in these systems (see e.g. Kavamos, G. J. Fundamentals of Photoinduced Electron Transfer, VCH: New York, 1993; pp 37-40). E0(D^+/D) and E^0(A/A^−) correspond to the […] of the electron donor (i.e. amine) and electron acceptor (i.e. fluorophore), respectively. The quantity ΔG00, is the equilibrium energy, which we estimate as the energy corresponding to the equilibrium wavelength λ00. As an estimate of λ00, we use the average of the excitation and emission maxima for each fluorophore. Smaller solvent-dependent work terms for the Coulombic interaction between the reactants and products are left out for simplicity. Since the mechanism of fluorescence switching in these systems depends on PET, this gives us a rough estimate of which fluorophores should give the best response to glucose.

[2] = Glucose sensitivity testing of chloro-oxazine-one boronate (COB); conditions: glucose zero to 600 mg/dL; 66% MeOH/buffer pH 7.4; 450/560 nm
Description: To investigate the conjugated organic heterocyclic ring system compounds as fluorophores, an oxazine-one system was studied. An oxazine-one is described as a neutral (uncharged) precursor to a charged oxazine dye. The relevant values for the COB system for the Rehm-Weller equation are: ΔGPET=−12.1 kcal/mole, E^0(Z^ox)=0.88V, E^0(F^red)=−1.10V, and ΔE00=57.8 kcal/mole. The compound's response to glucose in several solvent systems was characterized. A stock solution of the compound was prepared by dissolving 5.7 mg in 5 mL of methanol. Samples were prepared by adding 30 μL of this stock solution to 3 mL of solvent.
Glucose sensitivity testing was performed on the oxazine-one compound. Samples were prepared as described above and titrated with 30 μL aliquots of concentrated glucose solution (300 mg/mL). […] Following an initial period in which the baseline fluorescence level was determined, four 30 μL aliquots of glucose were introduced into the sample resulting in a final glucose concentration of approximately 1200 mg/dL. In this solvent system, glucose transduction yields a 45% increase in the fluorescence intensity as the glucose concentration is increased from zero to 600 mg/dL.
COB's response was evaluated in several solvent systems. […]
Based on these spectra, excitation and emission wavelengths of 450 nm and 560 nm, respectively, were chosen for subsequent steady-state fluorescence tests. […]

[3] = Cyclic voltammetry (glassy carbon, Ag/AgCl reference, 0.1 M NBu4ClO4 in acetonitrile); format: physicochemical
Description: Samples for FT IR spectroscopy were prepared as solutions in CHCl3, and only the C═O stretches are reported. Unless otherwise stated, all NMR spectra were recorded at 500 MHz for ^1H and 125 MHz for ^13C at 20-25° C. using CDCl3 as the solvent. Unless stated otherwise, mass spectra were obtained using electrospray ionization (50 V) with a 50/50 methanol/water solvent mixture with ^1% acetic acid added. Cyclic voltammetry was conducted using a glassy carbon working electrode, platinum counter electrode, and Ag/AgCl reference electrode and carried out in a 0.1 M solution of NBu4ClO4 in acetonitrile.
Summarized Syntheses. As the syntheses are described as a series of analogous compounds with general procedures are given below. Cyclic voltammetry was conducted using a glassy carbon working electrode, platinum counter electrode, and Ag/AgCl reference electrode and carried out in a 0.1 M solution of NBu4ClO4 in acetonitrile. Samples for fluorescence were prepared as 1.00 mM stock solutions in MeOH. A 30.0 μL aliquot of solution was then added to 3.000 mL of the appropriate solvent mixture (a combination of methanol and phosphate buffered saline—PBS). Relative quantum yields were determined by the relative output of equimolar solutions of two compounds using 3ay as a reference. Glucose additions were performed by the addition of a concentrated solution of glucose in PBS to a stirred solution of the fluorescent molecule in methanol/PBS.
General. All reactions were performed under an atmosphere of N2, followed by work-up in air. Protected boronate esters were stored under vacuum to prevent slow hydrolysis from atmospheric moisture. Unless stated otherwise, all chemicals were purchased from commercial suppliers. Anhydrous solvents from Aldrich were used for all reactions. Starting compounds known in the art such as N-n-butyl-4-chloronaphthalene-1,8-dicarboximide(1ax), 2,2-dimethylpropane-1,3-diyl[o-(bromomethyl) phenyl]boronate, were prepared by literature methods (see e.g. Daffy et al. Chem-Eur J 1998, 4, 1810-1815; de Silva et al., Chem Rev 1997, 97, 1515-1566). Samples for FT IR spectroscopy were prepared as solutions in CHCl3, and only the C═O stretches are reported here. All mass spectra were obtained using electrospray ionization (ESI/MS) with an ionization potential of 50V and a solvent system consisting of 1% acetic acid in 50/50 methanol/water. Cyclic voltammetry was conducted using a glassy carbon working electrode, platinum counter electrode, and Ag/AgCl reference electrode and carried out in a 0.1 M solution of NBu4ClO4 in acetonitrile. Samples for fluorescence measurements were prepared as 1.00 mM stock solutions in MeOH. A 30.0 μL aliquot of solution was then added to 3.000 mL of the appropriate solvent mixture (a combination of methanol and phosphate buffered saline—PBS) giving a final concentration of 10.0 μM for each complex. Changes in pH were carried out by the addition of small volumes of concentrated hydrochloric acid, acetic acid, or sodium hydroxide. Glucose additions were performed by the addition of a concentrated solution of glucose in PBS to a stirred solution of fluorophore in a cuvette. Relative quantum yield measurements were carried out by measuring the relative intensities of equimolar solutions (10.0 μM) of two fluorophores. Compound 3ay was used as the reference.

Q: With “6-chloro-5H-benzo[a]phenoxazin-5-one boronate [COB]” as the substance, how does the “ΔE00, energy of the excited state fluorophore” value [1] read?
A: 57.8 kcal/mol

Q: What about the ΔGPET ([1]; simplified Rehm-Weller equation) of the same substance?
A: -12.1 kcal/mol

Q: And the “increase in the fluorescence intensity” value [2]?
A: 45%

Q: What about the “E^0(F^red), reduction potential of the fluorophore” value [3] of the same substance?
A: −1.10 V

Q: And the “E^0(Z^ox), oxidation potential of the switch” value [3]?
A: 0.88 V
